Source: patent US20250283049A1, “AGENT FOR CULTURING ORGANOID IN ABSENCE OF EXTRACELLULAR MATRIX” (KEIO UNIVERSITY, priority 2022, published 2025)

Columns and labels:
Type in all cases: cell-based
[1] = tested on: human large intestine-derived organoid; test: Culture of organoids in absence of Matrigel with LATS kinase inhibitor; cell number by ATP (CellTiter-Glo 3D)
Method: In this experimental example, a human small intestine-derived organoid and human large intestine-derived organoid established in the presence of Matrigel (registered trademark) were cultured in the absence of Matrigel (registered trademark) and in the presence of a LATS kinase inhibitor (final concentration: 10 μM), and their dynamics were observed. The procedure was the same as in Experimental Example 1, except that each organoid was cultured in the absence of Matrigel (registered trademark).
The lower left panel of FIG. 3 is a photograph of a control (Ctrl) human large intestine-derived organoid cultured in the absence of Lats-IN, and the lower center panel of FIG. 3 is a photograph of a human large intestine-derived organoid cultured in the presence of Lats-IN. The scale bar is 100 μm. The lower right panel of FIG. 3 is a graph showing the results of measuring cell number in the human large intestine-derived organoids cultured in the presence of the control (Ctrl) and Lats-IN. The vertical axis of the graph represents luminescence intensity (relative value) indicating the amount of ATP present. […]
FIG. 8 presents graphs showing the results of measuring the proliferation of the human small intestine-derived and human large intestine-derived organoids in the absence of Lats-IN (Ctrl), in the presence of Lats-IN (Lats-IN), in the presence of Lats-IN and MYF01-37 (Lats-IN+MYF), and in the presence of MYF01-37 (MYF). The cell proliferation was measured by measuring ATP using a commercially available kit (product name “CellTiter-Glo 3D,” Promega Corporation). The vertical axis of the graph represents luminescence intensity (relative value) indicating the amount of ATP present. […]
FIG. 26 presents graphs showing the results of measuring cell number in each organoid after 6 days of culture by measuring ATP using a commercially available kit (product name “CellTiter-Glo 3D,” Promega Corporation). The vertical axis of the graph represents luminescence intensity (relative value) indicating the amount of ATP present.

AXIN2 gene = AXIN2 gene expression by quantitative real-time PCR in human small intestine-derived organoids; conditions: absence of Matrigel; Lats-IN 10 μM
Method: Human small intestine-derived organoids and human large intestine-derived organoids were cultured in the absence or presence of Matrigel (registered trademark) and in the absence or presence of Lats-IN (final concentration: 10 μM), and the expression level of the AXIN2 gene, whose expression is regulated by Wnt, was examined by quantitative real-time PCR.
FIG. 16 presents graphs showing the results of quantitative real-time PCR.

[2] = tested on: human small intestine-derived organoids; test: Niche factor removal; continuous passaging P0 to P16 in absence of Matrigel; conditions: Lats-IN 10 μM
Method: FIG. 15 is a graph showing the results of measuring the proliferation of human small intestine-derived organoids cultured in the absence of Matrigel (registered trademark), in the absence or presence of Lats-IN (final concentration: 10 μM), under conditions in which all WRENAIF niche factors were added, and under conditions in which some of these niche factors were removed. In FIG. 15, P0 to P16 indicate passage numbers 0 to 16. In addition, the dark colors in the graph indicate successful passaging, while the light colors indicate unsuccessful passaging.

[3] = tested on: crypts collected from the human colon; test: Organoid establishment from human colon crypts dissociated into single cells; cell number by ATP; conditions: absence of Matrigel, presence of TRULI; compared with presence of Matrigel
Method: Crypts were collected from the human colon and dissociated into single cells, then cultured in the presence of Matrigel (registered trademark) or in the absence of Matrigel (registered trademark) and in the presence of TRULI to establish organoids. In addition, the cell number in each organoid under the given conditions was measured by measuring ATP using a commercially available kit (product name “CellTiter-Glo 3D,” Promega Corporation).
The upper panel of FIG. 30 is a schematic view explaining an overview of this experimental example. The lower panel of FIG. 30 is a graph showing the results of measuring the proliferation of the organoids.

[4] = tested on: stomach-derived organoids, biliary tract-derived organoids, and mammary gland-derived organoids; test: Culture of organoids derived from various organs in absence of Matrigel; conditions: Lats-IN 10 μM
Method: It was examined whether organoids derived from various organs could be cultured in the absence of Matrigel (registered trademark) and in the absence or presence of Lats-IN (final concentration: 10 μM).
FIG. 11 presents representative photographs showing the results of culturing stomach-derived organoids, biliary tract-derived organoids, and mammary gland-derived organoids in the absence of Matrigel (registered trademark) and Lats-IN (Ctrl), or in the absence of Matrigel (registered trademark) and in the presence of Lats-IN (Lats-IN). The scale bar is 100 μm.

Q: `O=C(N=c1sccn1Cc1ccccc1)c1c[nH]c2ncccc12` [Lats-IN] was tested. Which “cell proliferation (ATP luminescence)” value ([1]; Experimental Example 5, Lats-IN 10 μM alone) did it give?
A: activated

Q: What about the “cell proliferation (cell number, ATP luminescence)” value ([1]; final concentration 10 μM, 7 days of culture, vs control) of the same molecule?
A: significantly activated

Q: And the “expression level of AXIN2” value (AXIN2 gene)?
A: increased to a level equivalent to that in the presence of Matrigel

Q: What about the “continuous passaging in medium lacking any of the WRENAIF niche factors” value [2] of the same molecule?
A: continuous passaging was not possible

Q: What about the “cell proliferation (ATP) during organoid establishment” value [3] of the same molecule?
A: comparable to that observed in the presence of Matrigel

Q: What about the “cell proliferation (photographs)” value [4] of the same molecule?
A: activated
